Earlier results as cited in patent EP0983068B1, “THE USE OF 1,2,4-TRIAZOLO 1,5-c]PYRIMIDINE HETEROCYCLIC ANALOGUES FOR THE PREPARATION OF MEDICAMENTS USEFUL FOR THE TREATMENT OF CEREBROVASCULAR DISTURBANCES” (SCHERING-PLOUGH S.p.A., priority 1997, dated 1998).

System: cerebral ischemia
Details: Life Sciences, 55, 61-65, 1994; Brain Research 705, 79-84, 1995

## CP66713
  effect in cerebral ischemia animal models: act favourably
